Data reported in patent publication US9579306B2, “Substituted 2-imidazolidinones and 2-imidazolones and their use in the treatment of cancer” (UNIVERSITÉ LAVAL, priority 2011, dated 2017).

Structure (SMILES) | melting point
CCCN1CCN(c2ccc(S(=O)(=O)Oc3cc(OC)c(OC)c(OC)c3)cc2)C1=O [Compound 101, 3,4,5-trimethoxyphenyl 4-(2-oxo-3-propylimidazolidin-1-yl)benzenesulfonate] | 133 to 134 °C
CCCN1CCN(c2ccc(S(=O)(=O)Oc3cc(OC)cc(OC)c3)cc2)C1=O [Compound 104, 3,5-dimethoxyphenyl 4-(2-oxo-3-propylimidazolidin-1-yl)benzenesulfonate] | 104 to 105 °C
